This note sets out measurements from patent US20050090529A1, “3,5 Disubstituted indazole compounds with nitrogen-bearing 5-membered heterocycles, pharmaceutical compositions, and methods for mediating or inhibiting cell proliferation” (PFIZER INC, priority 2003, published 2005).

pKi: −log10 of the molar value.

In the first assay the test system is Cyclin-dependent kinase. The assay is described as follows: Cyclin-dependent kinase inhibition, % inhibition at 10 nM (library Examples 99-270). Particulars: 10 nM compound. Format: biochemical. The gist of the method:
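Enzyme starts the reaction at 30° C, which runs 20 min with 25 μM [³²P/³³P]ATP and protein substrate (pH 7.4, 10 mM MgCl2, 2% DMSO). After EDTA quench, membrane-bound labelled substrate is read by phosphorimaging following acid washes.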
For the molecule `CCNCc1cncc(-c2ccc3[nH]nc(-c4ncc(C(=O)N5CCC(O)(CN6CCOCC6)CC5)[nH]4)c3c2)c1C` [Example 266, 1-{[2-(5-{5-[(ethylamino)methyl]-4-methylpyridin-3-yl}-1H-indazol-3-yl)-1H-imidazol-5-yl]carbonyl}-4-(morpholin-4-ylmethyl)piperidin-4-ol], the “% Inhib @ 10 nM” value stood at 18%.

In the case of `CCNCc1cncc(-c2ccc3[nH]nc(-c4ncc(C(=O)N5CCCC(O)(CN6CCCC6=O)CC5)[nH]4)c3c2)c1C` (centres unmarked) [Example 267, 1-[(1-{[2-(5-{5-[(ethylamino)methyl]-4-methylpyridin-3-yl}-1H-indazol-3-yl)-1H-imidazol-5-yl]carbonyl}-4-hydroxyazepan-4-yl)methyl]pyrrolidin-2-one], the “% Inhib @ 10 nM” value came to 21%.

As to `CCNCc1cncc(-c2ccc3[nH]nc(-c4ncc(C(=O)N5CCCC(O)(CN6CCOCC6)CC5)[nH]4)c3c2)c1C` (centres unmarked) [Example 268], the “% Inhib @ 10 nM” value worked out at 15%.

Take `CCNCc1cncc(-c2ccc3[nH]nc(-c4ncc(C(=O)N5CCCC(COCC6CC6)C5)[nH]4)c3c2)c1C` (centres unmarked) [Example 269, [(5-(3-[5-({3-[(cyclopropylmethoxy)methyl]piperidin-1-yl}carbonyl)-1H-imidazol-2-yl]-1H-indazol-5-yl}-4-methylpyridin-3-yl)methyl]ethylamine]: the “% Inhib @ 10 nM” value is given as 34%.

Take `CCNCc1cncc(-c2ccc3[nH]nc(-c4ncc(C(=O)NCCc5nnc(CC(C)C)o5)[nH]4)c3c2)c1C` [Example 270, 2-(5-{5-[(ethylamino)methyl]-4-methylpyridin-3-yl}-1H-indazol-3-yl)-N-[2-(5-isobutyl-1,3,4-oxadiazol-2-yl)ethyl]-1H-imidazole-5-carboxamide]: the “% Inhib @ 10 nM” value turned out to be 27%.

Another assay deals with T1, CDK2/Cyclin A (Homo sapiens, UniProt P24941).
T1 construct: made in house; host or cells: CDK2: insect cells (baculovirus); cyclin A: E. coli
The assay is described as follows: Inhibition of CDK2/Cyclin A retinoblastoma kinase activity (apparent Ki). The format is biochemical. Particulars: read-out: CDK2 Ki. As for the experimental part:
Cyclin-dependent kinase activity was measured by quantifying the enzyme-catalyzed, time-dependent incorporation of radioactive phosphate from [^32P]ATP or [^33P]ATP into a protein substrate. […] Reactions were initiated with enzyme, incubated at 30° C., and terminated after 20 minutes by the addition of ethylenediaminetetraacetic acid (EDTA) to 250 mM. […] Radioactivity was quantified by exposing the dried membranes to a phosphorimager.
Apparent Ki values were measured by assaying enzyme activity in the presence of different inhibitor compound concentrations and subtracting the background radioactivity measured in the absence of enzyme. Inhibition data were fit to an equation for competitive inhibition using Kaleidagraph (Synergy Software), or were fit to an equation for competitive tight-binding inhibition using the software KineTic (BioKin, Ltd.).
A complex of CDK2 and proteolyzed cyclin A was prepared and purified by gel filtration. […] Ki values were measured as described above.
Turning to `CCNCc1cncc(-c2ccc3[nH]nc(-c4nc(-c5ccccc5)c(C(=O)NC)[nH]4)c3c2)c1C` [Example 6, 2-[5-(5-Ethylaminomethyl-4-methyl-pyridin-3-yl)-1H-indazol-3-yl]-5-phenyl-3H-imidazole-4-carboxylic acid methylamide], the pKi (in general, the Ki on a negative log10 scale, so that one unit is a factor of ten) is 6.70 to 7.30.

As for `CCNCc1cncc(-c2ccc3[nH]nc(-c4nc(-c5ccccc5)c(C(=O)NC5CCCCC5)[nH]4)c3c2)c1C` [Example 12, 2-[5-(5-Ethylaminomethyl-4-methyl-pyridin-3-yl)-1H-indazol-3-yl]-5-phenyl-3H-imidazole-4-carboxylic acid cyclohexylamide], the pKi is 6.70 to 7.30.

`CCNCc1cncc(-c2ccc3[nH]nc(-c4nc(-c5ccccc5)c(C(=O)NCCN(C)C)[nH]4)c3c2)c1C` [Example 16, 2-[5-(5-Ethylaminomethyl-4-methyl-pyridin-3-yl)-1H-indazol-3-yl]-5-phenyl-3H-imidazole-4-carboxylic acid (2-dimethylamino-ethyl)-amide]: the pKi is below 6.70.

As for `CCNCc1cncc(-c2ccc3[nH]nc(-c4nc(-c5ccccc5)c(C(=O)NCCCO)[nH]4)c3c2)c1C` [Example 17, 2-[5-(5-Ethylaminomethyl-4-methyl-pyridin-3-yl)-1H-indazol-3-yl]-5-phenyl-3H-imidazole-4-carboxylic acid (3-hydroxy-propyl)-amide], the pKi is 6.70 to 7.30.

Consider `CCNCc1cncc(-c2ccc3[nH]nc(-c4nc(-c5ccccc5)c(C(=O)NCCCCO)[nH]4)c3c2)c1C` [Example 18, 2-[5-(5-Ethylaminomethyl-4-methyl-pyridin-3-yl)-1H-indazol-3-yl]-5-phenyl-3H-imidazole-4-carboxylic acid (4-hydroxy-butyl)-amide], for which the pKi was below 6.70.

For the molecule `CCNCc1cncc(-c2ccc3[nH]nc(-c4nc5c([nH]4)CCCC5)c3c2)c1C` [Example 21, Ethyl-{4-methyl-5-[3-(4,5,6,7-tetrahydro-1H-benzoimidazol-2-yl)-1H-indazol-5-yl]-pyridin-3-ylmethyl}-amine], the pKi was above 7.30.

With `CCNCc1cncc(-c2ccc3[nH]nc(-c4nc(-c5ccc(OC)c(OC)c5)c[nH]4)c3c2)c1C` [Example 33, (5-{3-[4-(3,4-Dimethoxy-phenyl)-1H-imidazol-2-yl]-1H-indazol-5-yl}-4-methyl-pyridin-3-ylmethyl)-ethyl-amine], the pKi was above 7.30.

For `CCNCc1cncc(-c2ccc3[nH]nc(-c4nc(-c5ccc(OC)cc5)c[nH]4)c3c2)c1C` [Example 34, Ethyl-(5-{3-[4-(4-methoxy-phenyl)-1H-imidazol-2-yl]-1H-indazol-5-yl}-4-methyl-pyridin-3-ylmethyl)-amine], the pKi is above 7.30.

Take `Cc1c(N)cncc1-c1ccc2[nH]nc(-c3nc4c([nH]3)CCCC4)c2c1` [Example 36, 4-Methyl-5-[3-(4,5,6,7-tetrahydro-1H-benzoimidazol-2-yl)-1H-indazol-5-yl]-pyridin-3-ylamine]: the pKi was above 7.30.

For the molecule `CCc1nc(-c2n[nH]c3ccc(-c4cncc(N)c4C)cc23)[nH]c1CC` [Example 37, 5-[3-(4,5-Diethyl-1H-imidazol-2-yl)-1H-indazol-5-yl]-4-methyl-pyridin-3-ylamine], the pKi is above 7.30.

`Cc1c(N)cncc1-c1ccc2[nH]nc(-c3nc(-c4cccc(F)c4)c[nH]3)c2c1` [Example 38, 5-{3-[4-(3-Fluoro-phenyl)-1H-imidazol-2-yl]-1H-indazol-5-yl}-4-methyl-pyridin-3-ylamine]: the pKi was above 7.30.

As for `Cc1c(N)cncc1-c1ccc2[nH]nc(-c3nc(-c4ccccc4)c[nH]3)c2c1` [Example 39, 4-Methyl-5-[3-(4-phenyl-1H-imidazol-2-yl)-1H-indazol-5-yl]-pyridin-3-ylamine], the pKi was above 7.30.

On to `Cc1c(N)cncc1-c1ccc2[nH]nc(-c3nc(-c4ccc(F)cc4)c[nH]3)c2c1` [Example 40, 5-{3-[4-(4-Fluoro-phenyl)-1H-imidazol-2-yl]-1H-indazol-5-yl}-4-methyl-pyridin-3-ylamine], for which the pKi was above 7.30.

On to `CNCc1cncc(-c2ccc3[nH]nc(-c4ncc[nH]4)c3c2)c1C` [Example 45, {5-[3-(1H-Imidazol-2-yl)-1H-indazol-5-yl]-4-methyl-pyridin-3-ylmethyl}-methyl-amine], for which the pKi is above 7.30.

With `CCNCc1cncc(-c2ccc3[nH]nc(-c4nc(C(=O)NCc5ccccn5)c[nH]4)c3c2)c1C` [Example 52, 2-(5-{5-[(ethylamino)methyl]-4-methylpyridin-3-yl}-1H-indazol-3-yl)-N-(pyridin-2-ylmethyl)1H-imidazole-5-carboxamide], the pKi was above 7.30.

As to `CCNCc1cncc(-c2ccc3[nH]nc(-c4ncc(C(=O)N(CC)CC)[nH]4)c3c2)c1C` [Example 56, N,N-diethyl-2-(5-{5-[(ethylamino)methyl]-4-methylpyridin-3-yl}-1H-indazol-3-yl)-1H-imidazole-5-carboxamide], the pKi is above 7.30.

On to `CCNCc1cncc(-c2ccc3[nH]nc(-c4nc(C(=O)N5CCN(C)CC5)c[nH]4)c3c2)c1C` [Example 57, N-{[4-methyl-5-(3-{5-[(4-methylpiperazin-1-yl)carbonyl]-1H-imidazol-2-yl}-1H-indazol-5-yl)pyridin-3-yl]methyl}ethanamine], for which the pKi was above 7.30.

Consider `CCNCc1cncc(-c2ccc3[nH]nc(-c4nc(C(=O)NC5CCCC5)c[nH]4)c3c2)c1C` [Example 58, N-cyclopentyl-2-(5-{5-[(ethylamino)methyl]-4-methylpyridin-3-yl}-1H-indazol-3-yl)-1H-imidazole-5-carboxamide], for which the pKi is above 7.30.
